Data published in US5637582A, “Peripheral circulation improving agent” (priority 1992, dated 1997).
Structures can show the parent of a compound that is named as a salt.

Columns and labels:
femoral artery [1] = assay: Maximum increase in femoral arterial blood flow in anesthetized dogs, cumulative i.v. dosing (Experimental Example 3); format: in vivo, dog; details: maximum during 60 min
Procedure: (§1) Adult dogs (one group consisting of 5 dogs) were intravenously given the test compound under anesthesia and artificial respiration successively at intervals of 60 minutes so that the dose can be 10, 30, 100, 300 and 1000 μg/kg body weight, and the blood flow of femoral artery was measured with a time course. […] An increase in the femoral arterial blood flow was calculated by subtracting the blood flow before the administration of the first dose of test compound as the standard value (the base line) from that of maximum during an interval of 60 minutes after each administration.

femoral artery [2] = assay: Increase in femoral arterial blood flow in anesthetized dogs, cumulative i.v. dosing (Experimental Example 1); format: in vivo, dog; details: 60 min after administration
Procedure: as §1, with “a dog)” for “5 dogs)”, “100 and” for “100,”, “300” for “300 and 1000”, “that” for “that of maximum during an interval of”

femoral artery [3] = assay: Femoral arterial blood flow, hind leg cooling model of Raynaud's disease (Experimental Example 5); format: in vivo, male SD rat
Procedure: (Lower limbs peripheral circulation disorder model due to hind leg cooling: Model of Raynaud's disease)
A catheter was inserted into left common carotid artery of a male SD rat (one group consisting of 5 rats) under anesthesia, and the arterial blood pressure was measured with a standard pressure transducer (manufactured by Nihon Koden. TP-200T, trade name) through a catheter attached to the artery. After isolating the left femoral artery from the peripheral connective tissue, a flow probe (HDP 10-20R: F 1.0 mm) of a Doppler blood flow meter (manufactured by Crystal Biotec Co., PD20, trade name) was attached thereto and was connected to the Doppler blood flow meter to measure the artery blood flow. After the operation, at the time that the state became stable, the left hind leg was exposed to a perfused solution at 10° C. to decrease the femoral arterial blood flow. After 30 minutes, 1 ml/kg of a 0.9% NaCl solution or 300 μg/kg of the test compound A was intravenously administered and the state was observed. In the case of Beraprost Na, continuous injection in an amount of […] was carried out after 30 minutes from cooling. The compounds to be used were each dissolved in a 0.9% NaCl solution.
The present model is disclosed, for example, in Nishio et al, "Effect of Beraprost Sodium on Peripheral Circulatory Disturbances Induced by Various Stimuli", Arzneim.-Forsch./Drug Res., 39 (II), Nr. 10 (1989), pp. 1229-1234. Note particularly the section "2.4. Sphygmometry in rat hind paw", at page 1230.

arterial blood pressure [4] = tested on: arterial blood pressure; set-up: species or system male SD rat; details: rat, in vivo
Procedure: (Lower limbs peripheral circulation disorder model due to hind leg cooling: Model of Raynaud's disease) […] TP-200T, trade name) through a catheter attached to the artery. […] After the operation, at the time that the state became stable, the left hind leg was exposed to a perfused solution at 10° C. to decrease the femoral arterial blood flow. […] In the case of Beraprost Na, continuous injection in an amount of […] was carried out after 30 minutes from cooling. […] The present model is disclosed, for example, in Nishio et al, "Effect of Beraprost Sodium on Peripheral Circulatory Disturbances Induced by Various Stimuli", Arzneim.-Forsch./Drug Res., 39 (II), Nr. 10 (1989), pp. 1229-1234. Note particularly the section "2.4. Sphygmometry in rat hind paw", at page 1230.

hind leg edema = assay: Hind leg frostbite model: model of Raynaud's disease (Experimental Example 7); format: in vivo, male SD rat; details: for % Inhibition of edema / Edema: 30 mg/kg, orally twice a day for 6 days; for edema inhibition activity: rat hind leg frostbite model, in words
Procedure: (Hind leg frostbite model: Model of Raynaud's disease)
Left hind leg of male SD rat (one group: 3 to 5 rats) was dipped in dry ice-ethanol for 2 seconds, and after 30 minutes, 30 mg/kg of a test compound dissolved in pure water was administered to the rat and then orally administered twice a day for 6 days continuously. At the final day of the experiment, volumes of both hind legs (below ankle joint) of the rat were measured by a water substitution method and an edema ratio was calculated from the following equation. Also, an inhibition ratio of the test compound administered group was obtained by comparing the edema ratio of the group in which the test compound was not administered. [formula]
The present model is disclosed, for example, in Hayashi et al, "Pharmacological Studies on Niceritrol (10), The Effects on Experimental Models of Peripherally Circulatory Insufficiency", Applied Pharmacology, 24 (6): 859-864 (1982), noting particularly the section "2. Effect on an experimental frostbite model" on page 860.

arterial blood pressure [5] = assay: Change of arterial blood pressure in anesthetized dogs (Experimental Example 4); details: 100 μg/kg i.v.
Procedure: (§2) Each test compound was intravenously administered to adult dogs (one group consisting of 2 or 4 dogs) under anesthesia and artificial respiration at a dose of 100 μg/kg body weight. Femoral arterial blood flow, vertebral arterial blood flow and arterial blood pressure were measured 1, 3, 5, 10, 20 and 30 minutes after the administration. The femoral arterial blood flow and vertebral arterial blood flow were measured with an electromagnetic blood flowmeter (manufactured by Nihon Koden, MFV-2100, trade name) through a flow probe attached to the femoral artery or vertebral artery. The arterial blood pressure was measured with a pressure transducer (manufactured by Millar, MICRO-TIP, Model SPC-350) through a catheter attached to the brachial artery.
(§3) Changes of the femoral arterial blood flow, vertebral arterial blood flow and arterial blood pressure were estimated by comparing the values measured before and after the administration of the test compound.

femoral artery [6] = assay: Change of femoral arterial blood flow in anesthetized dogs (Experimental Example 4); format: in vivo, dog; details: 100 μg/kg i.v.
Procedure: as §2, §3

vertebral artery = assay: Change of vertebral arterial blood flow in anesthetized dogs (Experimental Example 4); details: 100 μg/kg i.v.
Procedure: as §2, §3

`CC(=O)O[C@@H]1C(=O)N(CCN(C)C)c2ccc(CO)cc2S[C@@H]1c1ccc(C)cc1` [Compound E, (-)-cis-2-(4-methylphenyl)-3-acetoxy-5-[2-(dimethylamino)ethyl]-8-hydroxymethyl-2,3-dihydro-1,5-benzothiazepin-4(5H)-one oxalate] was tested, and the “Increase in femoral arterial blood flow” value (femoral artery [1]; 30 μg/kg i.v.) was 15.6 mL/min, the “Increase in femoral arterial blood flow” value (femoral artery [1]; 100 μg/kg i.v.) was 55.6 mL/min and the “Increase in femoral arterial blood flow” value (femoral artery [1]; 300 μg/kg i.v.) was 69.2 mL/min. The “Increase in femoral arterial blood flow” value (femoral artery [1]; 1000 μg/kg i.v.) was 68.6 mL/min, the “Increase in femoral arterial blood flow” value (femoral artery [2]; 30 μg/kg i.v.) was 15 mL/min and the “Increase in femoral arterial blood flow” value (femoral artery [2]; 100 μg/kg i.v.) was 37 mL/min. For the same compound, the “Increase in femoral arterial blood flow” value (femoral artery [2]; 300 μg/kg i.v.) was 36 mL/min.

With `CC#CCC(C)[C@H](O)/C=C/[C@@H]1[C@H]2c3cccc(CCCC(=O)O)c3O[C@H]2C[C@H]1O` (stereo partly drawn) [Compound J, Beraprost Na, reference compound] the “Femoral Arterial Blood Flow change” value (femoral artery [3]; 0 min (before cooling and administration; 30 min = 0)) was 1.116 Δ ml/min, the “Femoral Arterial Blood Flow change” value (femoral artery [3]; 40 min, given at 30 min: A 300 μg/kg i.v., J 0.3 μg/kg/ml continuous injection) was 0.252 Δ ml/min and the “Femoral Arterial Blood Flow change” value (femoral artery [3]; 50 min, given at 30 min: A 300 μg/kg i.v., J 0.3 μg/kg/ml continuous injection) was 0.304 Δ ml/min. For the same compound, the “Femoral Arterial Blood Flow change” value (femoral artery [3]; 60 min, given at 30 min: A 300 μg/kg i.v., J 0.3 μg/kg/ml continuous injection) was 0.368 Δ ml/min, the “Femoral Arterial Blood Flow change” value (femoral artery [3]; 70 min, given at 30 min: A 300 μg/kg i.v., J 0.3 μg/kg/ml continuous injection) was 0.436 Δ ml/min and the “Femoral Arterial Blood Flow change” value (femoral artery [3]; 80 min, given at 30 min: A 300 μg/kg i.v., J 0.3 μg/kg/ml continuous injection) was 0.372 Δ ml/min. The “Femoral Arterial Blood Flow change” value (femoral artery [3]; 90 min, given at 30 min: A 300 μg/kg i.v., J 0.3 μg/kg/ml continuous injection) was 0.344 Δ ml/min and the “Mean Arterial Pressure change” value (arterial blood pressure [4]) was 1.20 Δ mmHg.

In the case of `Clc1ccccc1CN1CCc2sccc2C1` [Compound K, ticlopidine], the “% Inhibition of edema” value (hind leg edema) is reported as -9%, the Edema (hind leg edema) is reported as 48 ± 2% and the edema inhibition activity (hind leg edema) is reported as “did not show any edema inhibition activity”.

For `CC(=O)Oc1ccccc1C(=O)O` [Compound L, acetyl salicylic acid], the “% Inhibition of edema” value (hind leg edema) was -25%, the Edema (hind leg edema) was 55 ± 8% and the edema inhibition activity (hind leg edema) was “did not show any edema inhibition activity”.

With `COc1ccc([C@H]2Sc3ccccc3N(CCN(C)C)C(=O)[C@H]2OC(C)=O)cc1` [F] the “Increase in femoral arterial blood flow” value (femoral artery [1]; 10 μg/kg i.v.) was 10.7 mL/min, the “Increase in femoral arterial blood flow” value (femoral artery [1]; 30 μg/kg i.v.) was 21.0 mL/min and the “Increase in femoral arterial blood flow” value (femoral artery [1]; 100 μg/kg i.v.) was 27.3 mL/min. The “Increase in femoral arterial blood flow” value (femoral artery [1]; 300 μg/kg i.v.) was 37.0 mL/min, the “Arterial Blood Pressure change (side effects)” value (“Arterial Blood Pressure change” for short) (arterial blood pressure [5]; 1 min) was -1.5 ΔmmHg and the “Arterial Blood Pressure change” value (arterial blood pressure [5]; 3 min) was -0.5 ΔmmHg. The “Arterial Blood Pressure change” value (arterial blood pressure [5]; 5 min) was 1.0 ΔmmHg, the “Arterial Blood Pressure change” value (arterial blood pressure [5]; 10 min) was 1.5 ΔmmHg and the “Arterial Blood Pressure change” value (arterial blood pressure [5]; 20 min) was 1.5 ΔmmHg. For the same compound, the “Arterial Blood Pressure change” value (arterial blood pressure [5]; 30 min) was 2.5 ΔmmHg, the “Increase in femoral arterial blood flow” value (femoral artery [2]; 10 μg/kg i.v.) was 11 mL/min and the “Increase in femoral arterial blood flow” value (femoral artery [2]; 30 μg/kg i.v.) was 21 mL/min. For the same compound, the “Increase in femoral arterial blood flow” value (femoral artery [2]; 100 μg/kg i.v.) was 27 mL/min, the “Increase in femoral arterial blood flow” value (femoral artery [2]; 300 μg/kg i.v.) was 37 mL/min and the “Femoral Arterial Blood Flow change” value (femoral artery [6]; 3 min) was 36.0 Δ ml/min. For the same compound, the “Femoral Arterial Blood Flow change” value (femoral artery [6]; 5 min) was 48.0 Δ ml/min, the “Femoral Arterial Blood Flow change” value (femoral artery [6]; 10 min) was 63.5 Δ ml/min and the “Femoral Arterial Blood Flow change” value (femoral artery [6]; 20 min) was 64.5 Δ ml/min. The “Femoral Arterial Blood Flow change” value (femoral artery [6]; 30 min) was 54.5 Δ ml/min, the “AUC60 of the femoral arterial blood flow” value (femoral artery [6]; 60 minutes after administration) was 2977.0 mL and the “femoral arterial blood flow increasing activity” value (femoral artery [6]; even after 30 minutes, in words) was “excellent femoral arterial blood flow increasing activity”. For the same compound, the “Vertebral Arterial Blood Flow change (side effects)” value (vertebral artery; 1 min) was -0.5 Δ ml/min, the “Vertebral Arterial Blood Flow change (side effects)” value (vertebral artery; 3 min) was -1.0 Δ ml/min and the “Vertebral Arterial Blood Flow change (side effects)” value (vertebral artery; 5 min) was -1.0 Δ ml/min. For the same compound, the “Vertebral Arterial Blood Flow change (side effects)” value (vertebral artery; 10 min) was 0.0 Δ ml/min, the “Vertebral Arterial Blood Flow change (side effects)” value (vertebral artery; 20 min) was 0.0 Δ ml/min and the “Vertebral Arterial Blood Flow change (side effects)” value (vertebral artery; 30 min) was 0.5 Δ ml/min.
